Experimental data: the NIST ThermoML archive (doi:10.1021/acs.jced.5b00105)
± gives the expanded uncertainty stated by the source.

Columns and labels:
[1] = for surface tension liquid-gas: Drop volume; for viscosity / mass density: 100 kPa, Liquid; for viscosity: Concentric cylinders viscometry; for mass density: Vibrating tube method
[2] = refractive index (Na D-line) (dimensionless); conditions: 100 kPa, Liquid
[3] = xn = mol fraction of the nth substance listed; conditions: x2 = 0; for surface tension liquid-gas: Drop volume; for viscosity / mass density: 100 kPa, Liquid; for viscosity: Concentric cylinders viscometry; for mass density: Vibrating tube method
[4] = refractive index (Na D-line) (dimensionless); xn = mol fraction of the nth substance listed; conditions: 100 kPa, Liquid, x2 = 0

CC(C)CC(C)(C)C [2,2,4-trimethylpentane]
Conditions	mass density, [1] [kg/m3]	refractive index, [2]	surface tension liquid-gas, [1] [mN/m]	viscosity, [1] [mPa·s]
293.15 K	691.91 ± 0.19	1.3921 ± 0.0015	18.94 ± 0.24	0.518 ± 0.083
298.15 K	687.82 ± 0.19	1.3886 ± 0.0015	18.39 ± 0.24	0.493 ± 0.079
303.15 K	683.68 ± 0.19	1.3876 ± 0.0015	17.99 ± 0.24	0.47 ± 0.075
308.15 K	679.51 ± 0.19	1.3848 ± 0.0015	17.58 ± 0.23	0.449 ± 0.072
313.15 K	675.32 ± 0.19	1.3833 ± 0.0015	–	0.43 ± 0.069
318.15 K	671.05 ± 0.19	1.3785 ± 0.0015	–	0.414 ± 0.066
323.15 K	666.8 ± 0.2	1.376 ± 0.0015	–	0.398 ± 0.064
333.15 K	658.2 ± 0.2	–	–	0.371 ± 0.06
343.15 K	649.44 ± 0.2	–	–	0.348 ± 0.056

CC(C)CC(C)(C)C [2,2,4-trimethylpentane] + CC1CCCCC1
Conditions	mass density, [3] [kg/m3]	refractive index, [4]	surface tension liquid-gas, [3] [mN/m]	viscosity, [3] [mPa·s]
293.15 K	691.91 ± 0.19	1.3921 ± 0.0015	18.94 ± 0.24	0.518 ± 0.083
298.15 K	687.82 ± 0.19	1.3886 ± 0.0015	18.39 ± 0.24	0.493 ± 0.079
303.15 K	683.68 ± 0.19	1.3876 ± 0.0015	17.99 ± 0.24	0.47 ± 0.075
308.15 K	679.51 ± 0.19	1.3848 ± 0.0015	17.58 ± 0.23	0.449 ± 0.072
313.15 K	675.32 ± 0.19	1.3833 ± 0.0015	–	0.43 ± 0.069
318.15 K	671.05 ± 0.19	1.3785 ± 0.0015	–	0.414 ± 0.066
323.15 K	666.8 ± 0.2	1.376 ± 0.0015	–	0.398 ± 0.064
333.15 K	658.2 ± 0.2	–	–	0.371 ± 0.06
343.15 K	649.44 ± 0.2	–	–	0.348 ± 0.056

CC(C)CC(C)(C)C [2,2,4-trimethylpentane] + CCC1CCCCC1
Conditions	mass density, [3] [kg/m3]	refractive index, [4]	surface tension liquid-gas, [3] [mN/m]	viscosity, [3] [mPa·s]
293.15 K	691.91 ± 0.19	1.3921 ± 0.0015	18.94 ± 0.24	0.518 ± 0.083
298.15 K	687.82 ± 0.19	1.3886 ± 0.0015	18.39 ± 0.24	0.493 ± 0.079
303.15 K	683.68 ± 0.19	1.3876 ± 0.0015	17.99 ± 0.24	0.47 ± 0.075
308.15 K	679.51 ± 0.19	1.3848 ± 0.0015	17.58 ± 0.23	0.449 ± 0.072
313.15 K	675.32 ± 0.19	1.3833 ± 0.0015	–	0.43 ± 0.069
318.15 K	671.05 ± 0.19	1.3785 ± 0.0015	–	0.414 ± 0.066
323.15 K	666.8 ± 0.2	1.376 ± 0.0015	–	0.398 ± 0.064
333.15 K	658.2 ± 0.2	–	–	0.371 ± 0.06
343.15 K	649.44 ± 0.2	–	–	0.348 ± 0.056

CC(C)CC(C)(C)C [2,2,4-trimethylpentane] + CCCCC1CCCCC1
Conditions	mass density, [3] [kg/m3]	refractive index, [4]	surface tension liquid-gas, [3] [mN/m]	viscosity, [3] [mPa·s]
293.15 K	691.91 ± 0.19	1.3921 ± 0.0015	18.94 ± 0.24	0.518 ± 0.083
298.15 K	687.82 ± 0.19	1.3886 ± 0.0015	18.39 ± 0.24	0.493 ± 0.079
303.15 K	683.68 ± 0.19	1.3876 ± 0.0015	17.99 ± 0.24	0.47 ± 0.075
308.15 K	679.51 ± 0.19	1.3848 ± 0.0015	17.58 ± 0.23	0.449 ± 0.072
313.15 K	675.32 ± 0.19	1.3833 ± 0.0015	–	0.43 ± 0.069
318.15 K	671.05 ± 0.19	1.3785 ± 0.0015	–	0.414 ± 0.066
323.15 K	666.8 ± 0.2	1.376 ± 0.0015	–	0.398 ± 0.064
333.15 K	658.2 ± 0.2	–	–	0.371 ± 0.06
343.15 K	649.44 ± 0.2	–	–	0.348 ± 0.056

CCCCC1CCCCC1 [butylcyclohexane]
Conditions	mass density, [1] [kg/m3]	refractive index, [2]	surface tension liquid-gas, [1] [mN/m]	viscosity, [1] [mPa·s]
293.15 K	799.37 ± 0.15	1.4403 ± 0.0015	26.81 ± 0.25	1.304 ± 0.21
298.15 K	795.63 ± 0.15	1.4377 ± 0.0015	25.87 ± 0.24	1.199 ± 0.19
303.15 K	791.88 ± 0.15	1.4355 ± 0.0015	25.49 ± 0.24	1.109 ± 0.18
308.15 K	788.12 ± 0.15	1.4333 ± 0.0015	24.73 ± 0.24	1.031 ± 0.17
313.15 K	784.35 ± 0.15	1.4314 ± 0.0015	–	0.961 ± 0.15
318.15 K	780.49 ± 0.15	1.429 ± 0.0015	–	0.9 ± 0.14
323.15 K	776.7 ± 0.16	1.4268 ± 0.0015	–	0.844 ± 0.14
333.15 K	769.09 ± 0.16	–	–	0.749 ± 0.12
343.15 K	761.43 ± 0.16	–	–	0.671 ± 0.11

CCC1CCCCC1 [ethylcyclohexane]
Conditions	mass density, [1] [kg/m3]	refractive index, [2]	surface tension liquid-gas, [1] [mN/m]	viscosity, [1] [mPa·s]
293.15 K	787.98 ± 0.15	1.4337 ± 0.0015	25.47 ± 0.24	0.848 ± 0.14
298.15 K	783.97 ± 0.15	1.4301 ± 0.0015	24.76 ± 0.24	0.793 ± 0.13
303.15 K	779.93 ± 0.15	1.4295 ± 0.0015	24.55 ± 0.24	0.745 ± 0.12
308.15 K	775.88 ± 0.15	1.4278 ± 0.0015	23.74 ± 0.24	0.702 ± 0.11
313.15 K	771.82 ± 0.15	1.4259 ± 0.0015	–	0.663 ± 0.11
318.15 K	767.69 ± 0.15	1.4204 ± 0.0015	–	0.628 ± 0.1
323.15 K	763.59 ± 0.15	1.4187 ± 0.0015	–	0.597 ± 0.096
333.15 K	755.35 ± 0.15	–	–	0.541 ± 0.087
343.15 K	747.03 ± 0.16	–	–	0.496 ± 0.08

CC1CCCCC1 [methylcyclohexane]
Conditions	mass density, [1] [kg/m3]	refractive index, [2]	surface tension liquid-gas, [1] [mN/m]	viscosity, [1] [mPa·s]
293.15 K	769.35 ± 0.15	1.4232 ± 0.0015	23.87 ± 0.24	0.735 ± 0.12
298.15 K	765.05 ± 0.15	1.4199 ± 0.0015	23.02 ± 0.24	0.692 ± 0.11
303.15 K	760.71 ± 0.15	1.419 ± 0.0015	22.55 ± 0.24	0.651 ± 0.1
308.15 K	756.37 ± 0.15	1.4168 ± 0.0015	22.12 ± 0.24	0.615 ± 0.099
313.15 K	752 ± 0.16	1.415 ± 0.0015	–	0.58 ± 0.093
318.15 K	747.58 ± 0.16	1.4102 ± 0.0015	–	0.549 ± 0.088
323.15 K	743.17 ± 0.16	1.4078 ± 0.0015	–	0.522 ± 0.084
333.15 K	734.29 ± 0.16	–	–	0.476 ± 0.076
343.15 K	725.31 ± 0.16	–	–	0.439 ± 0.07
